According to patent US10683486B2, “Methods for producing hepatocytes” (BioLamina AB, priority 2015, dated 2020):
Read-outs that look alike come from different tables or passages of the source.

System: stem cell derived hepatocytes
Test: Hepatocyte function with Cameron and Avior procedures on laminin-221/laminin-521 substrates (Example 3)
Format: cell-based, human
From the text: Stem-cell derived hepatocytes were produced from human embryonic stem cells on three different substrates. The first substrate was pure laminin-521 (LN-521). The second substrate was a mix of laminin-521 and laminin-221 in a weight ratio of 1:3 (221 (1:3)). The third substrate was a mix of laminin-221 and laminin-521 in a weight ratio of 1:1 (221 (1:1)). The Cameron procedure and the Avior procedure were compared to each other.
FIG. 13 is a set of two bar graphs showing hepatocyte function of the two procedures. […] Such benefits were not observed using both MK4 and LCA.

Compound: C[C@H](CCC(=O)O)[C@H]1CC[C@H]2[C@@H]3CC[C@@H]4C[C@H](O)CC[C@]4(C)[C@H]3CC[C@]12C [LCA, lithocholic acid]
- toxic effects on stem cell derived hepatocytes (Avior procedure, LCA and MK4 together, cell death at day 18): major toxic effects

Compound: CC(C)=CCC/C(C)=C/CC/C(C)=C/CC/C(C)=C/CC1=C(C)C(=O)c2ccccc2C1=O [MK4, vitamin K (MK4)]
- toxic effects on stem cell derived hepatocytes: major toxic effects
